# Assay results as given in ChEMBL document CHEMBL3576856, “Membrane-Targeting DCAP Analogues with Broad-Spectrum Antibiotic Activity against Pathogenic Bacteria” (2015).
# Active and inactive are the calls of the source. No cut-off for these calls is given here.
# What was measured:
# [1] = tested on: Staphylococcus aureus; assay: Antimicrobial activity against Staphylococcus aureus incubated at 37 degC overnight for 18 hrs; assay type: functional
# [2] = tested on: Escherichia coli; assay: Antimicrobial activity against Escherichia coli MG1655 incubated at 37 degC overnight for 18 hrs; assay type: functional; conditions: MG1655, 18 h
# [3] = tested on: Escherichia coli; assay: Antimicrobial activity against Escherichia coli BW25113 expressing delta-tolC gene incubated for 16 to 18 hrs by macrodilution method; assay type: functional
# [4] = tested on: Escherichia coli; assay: Antimicrobial activity against Escherichia coli BW25113 incubated for 16 to 18 hrs by macrodilution method; assay type: functional
# [5] = tested on: Klebsiella pneumoniae; assay: Antimicrobial activity against Klebsiella pneumoniae incubated for 16 to 18 hrs by macrodilution method; assay type: functional
# [6] = tested on: Klebsiella aerogenes; assay: Antimicrobial activity against Enterobacter aerogenes incubated for 16 to 18 hrs by macrodilution method; assay type: functional
# [7] = tested on: Salmonella typhimurium; assay: Antimicrobial activity against Salmonella typhimurium incubated for 16 to 18 hrs by macrodilution method; assay type: functional, Salmonella enterica subsp. enterica serovar Typhimurium; conditions: Salmonella enterica
# [8] = tested on: Vibrio cholerae; assay: Antimicrobial activity against Vibrio cholerae incubated for 16 to 18 hrs by macrodilution method; assay type: functional
# [9] = tested on: Staphylococcus aureus; assay: Antimicrobial activity against Staphylococcus aureus Newman incubated for 16 to 18 hrs by macrodilution method; assay type: functional
# [10] = tested on: Acinetobacter baumannii; assay: Antimicrobial activity against Acinetobacter baumannii incubated for 16 to 18 hrs by macrodilution method; assay type: functional
# [11] = tested on: Edwardsiella tarda; assay: Antimicrobial activity against Edwardsiella tarda incubated for 16 to 18 hrs by macrodilution method; assay type: functional
# [12] = tested on: Shigella boydii; assay: Antimicrobial activity against Shigella boydii incubated for 16 to 18 hrs by macrodilution method; assay type: functional
# [13] = tested on: Morganella morganii; assay: Antimicrobial activity against Morganella morganii incubated for 16 to 18 hrs by macrodilution method; assay type: functional
# [14] = tested on: Burkholderia pseudomallei; assay: Antimicrobial activity against Burkholderia pseudomallei incubated for 16 to 18 hrs by macrodilution method; assay type: functional
# [15] = tested on: Francisella tularensis; assay: Antimicrobial activity against Francisella tularensis incubated for 16 to 18 hrs by macrodilution method; assay type: functional
# [16] = tested on: Bacillus anthracis; assay: Antimicrobial activity against Bacillus anthracis incubated for 16 to 18 hrs by macrodilution method; assay type: functional
# [17] = tested on: Burkholderia mallei; assay: Antimicrobial activity against Burkholderia mallei incubated for 16 to 18 hrs by macrodilution method; assay type: functional
# [18] = tested on: Yersinia pestis; assay: Antimicrobial activity against Yersinia pestis incubated for 16 to 18 hrs by macrodilution method; assay type: functional
# [19] = tested on: Staphylococcus aureus; assay: Synergistic potentiation of ampicillin-induced antimicrobial effect against Staphylococcus aureus at 2.5 to 80 uM incubated at 37 degC overnight for 18 hrs in presence of >4 uM ampicillin by checkerboard assay; assay type: functional, organism-based
# [20] = tested on: Staphylococcus aureus; assay: Potentiation of kanamycin-induced antimicrobial effect against Staphylococcus aureus at 2.5 to 80 uM incubated at 37 degC overnight for 18 hrs in presence of kanamycin by checkerboard assay; assay type: functional, organism-based
# [21] = tested on: Escherichia coli; assay: Synergistic potentiation of kanamycin-induced antimicrobial effect against Escherichia coli MG1655 at 2.5 to 80 uM incubated at 37 degC overnight for 18 hrs in presence of >4 uM kanamycin by checkerboard assay; assay type: functional, organism-based
# [22] = tested on: Escherichia coli; assay: Potentiation of novobiocin-induced antimicrobial effect against Escherichia coli MG1655 at 2.5 to 80 uM incubated at 37 degC overnight for 18 hrs in presence of novobiocin by checkerboard assay; assay type: functional, organism-based
# [23] = tested on: Escherichia coli; assay: Synergistic potentiation of ampicillin-induced antimicrobial effect against Escherichia coli MG1655 at 2.5 to 80 uM incubated at 37 degC overnight for 18 hrs in presence of >4 uM ampicillin by checkerboard assay; assay type: functional, organism-based
# [24] = tested on: Escherichia coli; assay: Antimicrobial activity against Escherichia coli MG1655 at 2.5 to 80 uM incubated at 37 degC overnight for 18 hrs in presence of ampicillin by checkerboard assay; assay type: functional, organism-based
smiles,measurement,setting,value
CC1(C)S[C@@H]2[C@H](NC(=O)[C@H](N)c3ccccc3)C(=O)N2[C@H]1C(=O)O [AMPICILLIN],MIC,[1],1 µM
same,MIC,[2],10 µM
CCCCCNCC(O)Cn1c2ccc(Cl)cc2c2cc(Cl)ccc21 (stereo not drawn),MIC,[3],5 µM
same,MIC,[4],80 µM
CCC(CC)CNCC(O)Cn1c2ccc(Cl)cc2c2cc(Cl)ccc21 (stereo not drawn),MIC,[3],2.5 µM
same,MIC,[4],80 µM
same,MIC,[5],> 200 µM
same,MIC,[6],> 200 µM
same,MIC,[7],200 µM
same,MIC,[8],6.25 µM
same,MIC,[9],5 µM
same,MIC,[10],25 µM
same,MIC,[11],12.5 µM
same,MIC,[12],25 µM
same,MIC,[13],> 200 µM
OCC(CO)(CO)NCC(O)Cn1c2ccc(Cl)cc2c2cc(Cl)ccc21 (racemic),MIC,[3],20 µM
same,MIC,[4],80 µM
same,MIC,[5],200 µM
same,MIC,[6],200 µM
same,MIC,[7],100 µM
same,MIC,[8],50 µM
same,MIC,[9],40 µM
same,MIC,[10],200 µM
same,MIC,[11],100 µM
same,MIC,[12],100 µM
same,MIC,[13],200 µM
OCC(CO)(CO)NC[C@H](O)Cn1c2ccc(Cl)cc2c2cc(Cl)ccc21,MIC,[3],20 µM
same,MIC,[4],80 µM
same,MIC50,[14],≥ 170 µM
same,MIC90,[14],≥ 170 µM
same,MIC50,[15],85 µM
same,MIC90,[15],170 µM
same,MIC50,[16],42 µM
same,MIC90,[16],42 µM
same,MIC50,[17],≥ 170 µM
same,MIC90,[17],≥ 170 µM
same,MIC50,[18],≥ 170 µM
same,MIC90,[18],≥ 170 µM
CC(C)(C)NCC(O)Cn1c2ccc(Cl)cc2c2cc(Cl)ccc21 (stereo not drawn),MIC,[3],40 µM
same,MIC,[4],160 µM
CCC(CC)NCC(O)Cn1c2ccc(Cl)cc2c2cc(Cl)ccc21 (stereo not drawn),MIC,[3],5 µM
same,MIC,[4],80 µM
NC[C@H]1O[C@H](O[C@H]2[C@H](O)[C@@H](O[C@H]3O[C@H](CO)[C@@H](O)[C@H](N)[C@H]3O)[C@H](N)C[C@@H]2N)[C@H](O)[C@@H](O)[C@@H]1O [KANAMYCIN],MIC,[1],2.5 µM
same,MIC,[2],10 µM
CO[C@@H]1[C@@H](OC(N)=O)[C@@H](O)[C@H](Oc2ccc3c(O)c(NC(=O)c4ccc(O)c(CC=C(C)C)c4)c(=O)oc3c2C)OC1(C)C [NOVOBIOCIN],MIC,[3],1.2 µM
same,MIC,[2],320 µM
CCC(CO)(CO)NCC(O)Cn1c2ccc(Cl)cc2c2cc(Cl)ccc21 (stereo not drawn),MIC,[3],20 µM
same,MIC,[4],160 µM
OCC(CO)(CO)NC[C@@H](O)Cn1c2ccc(Cl)cc2c2cc(Cl)ccc21,MIC,[3],20 µM
same,MIC,[4],80 µM
OC(CNC1CCCCC1)Cn1c2ccc(Cl)cc2c2cc(Cl)ccc21 (stereo not drawn),MIC,[3],2.5 µM
same,MIC,[4],40 µM
same,MIC,[5],> 200 µM
same,MIC,[6],> 200 µM
same,MIC50,[14],164 µM
same,MIC90,[14],≥ 164 µM
same,MIC50,[15],2.5 µM
same,MIC90,[15],10 µM
same,MIC50,[16],5 µM
same,MIC90,[16],10 µM
same,MIC50,[17],21 µM
same,MIC90,[17],82 µM
same,MIC,[7],100 µM
same,MIC,[8],6.25 µM
same,MIC,[9],5 µM
same,MIC,[10],25 µM
same,MIC,[11],50 µM
same,MIC50,[18],41 µM
same,MIC90,[18],82 µM
same,MIC,[12],50 µM
same,MIC,[13],> 200 µM
OCC(CO)(CO)NCC(O)Cn1ccc2cc(Cl)ccc21 (stereo not drawn),MIC,[3],320 µM
same,MIC,[4],> 320 µM
OCC(CO)(CO)NCC(O)Cn1c2ccccc2c2ccccc21 (stereo not drawn),MIC,[3],> 80 µM
same,MIC,[4],> 320 µM
CC(C)CCNCCCn1c2ccc(Cl)cc2c2cc(Cl)ccc21,MIC,[3],5 µM
same,MIC,[4],80 µM
CC(C)CCNCC(O)Cn1c2ccc(Cl)cc2c2cc(Cl)ccc21 (stereo not drawn),Activity,[19],Active
same,MIC,[3],2.5 µM
same,MIC,[4],40 µM
same,Activity,[20],inactive
same,MIC,[5],50 µM
same,MIC,[6],50 µM
same,Activity,[21],Active
same,MIC50,[14],170 µM
same,MIC90,[14],≥ 170 µM
same,MIC50,[15],5 µM
same,MIC90,[15],10 µM
same,Activity,[22],inactive
same,MIC50,[16],5 µM
same,MIC90,[16],5 µM
same,MIC50,[17],21 µM
same,MIC90,[17],42 µM
same,Activity,[23],Active
same,MIC,[7],50 µM
same,MIC,[8],6.25 µM
same,MIC,[9],5 µM
same,MIC,[10],12.5 µM
same,MIC,[11],25 µM
same,MIC50,[18],21 µM
same,MIC90,[18],42 µM
same,MIC,[12],25 µM
same,Activity,[24],Active
same,MIC,[13],50 µM
CC(CO)(CO)NCC(O)Cn1c2ccc(Cl)cc2c2cc(Cl)ccc21 (stereo not drawn),MIC,[3],40 µM
same,MIC,[4],80 µM
OCC(CO)NCC(O)Cn1c2ccc(Cl)cc2c2cc(Cl)ccc21 (stereo not drawn),MIC,[3],20 µM
same,MIC,[4],40 µM
